Test system: KRAS PDC multicell spheroid viability
Test: Anticancer human tumor 825966-067-R-J1-PDC patient-derived colon carcinoma cell line growth inhibition [KRAS2]
Conditions: for viability, T/C: stronger effect = lower value
From the text: Multicellular complex tumor spheroid response to RAS pathway inhibitors in combination with a targeted agents in patient-derived cell lines with oncogenic KRAS variants from multiple cancer types
A high-throughput screen of multi-cell type tumor spheroids was designed to identify active combinations of targeted small molecules and KRAS pathway inhibitors. Complex spheroids include a stromal component modeled by human endothelial cells (HUVEC) and fibroblasts modeled by human mesenchymal stem cells (MSCs). The concentration ranges selected for each drug and investigational agent were based upon clinically achievable concentrations if the clinical Cmax of the agent was known.
Compounds. The drugs and investigational agents: BI-3406 (NSC825286), BAY-293 (NSC824723), batoprotafib (TNO155; NSC825523), sotorasib (AMG 510; NSC818433), MRTX1257 (NSC819558), elimusertib (BAY 1895344; NSC800525), molibresib (GSK525762; NSC774829), temuterkib (LY3214996; NSC803410), venetoclax (NSC766270), alisertib (NSC759677), olaparib (NSC753686), talazoparib (NSC767125), erdafitinib (NSC781556), ipatasertib (NSC767898), cabozantinib (NSC761068), nintedanib (NSC756659), abemaciclib (NSC768073), docetaxel (NSC628503), trametinib (NSC758246), and sapanisertib (NSC764658) were obtained from the National Cancer Institute (NCI) Developmental Therapeutics Program Chemical Repository. The FDA-approved anticancer drug set is available from the Developmental Therapeutics Program. […] The stock solutions were prepared in dimethyl sulfoxide (DMSO, Sigma-Aldrich, St. Louis, MO, cat. D2650) at 800-fold the tested concentration and stored at -70 degrees C prior to their use. All drugs and investigational agents were tested over a range starting from a high concentration at or near the clinical Cmax and decreasing in half-log increments. If the clinical Cmax for an agent had not been determined, the highest concentration tested was 10 microM.
Cell Culture. All cells were maintained in an incubator at 37 degrees C and 5% CO2 with 95% humidity. The PDC lines were cultured according to standard operating procedures established by the NCI PDMR (https://pdmr.cancer.gov/sops/default.htm). Briefly, all PDCs were thawed and cultured in Matrigel-coated flasks prepared with a working solution of 1X Ham's F-12 nutrient mix, without supplementation (Invitrogen, Waltham, MA, cat. 11765054), 100 U/mL penicillin-streptomycin (Invitrogen, cat. 15140122), and 2.5% Matrigel (Corning Inc., Corning, NY, cat. 354248) for the first three passages. All PDCs were cultured in complete DMEM/F-12 media containing advanced DMEM/F-12 (Invitrogen, cat. 12634028), 4.9% defined fetal bovine serum, heat inactivated (HyClone Laboratories Inc., Logan, UT, cat. SH30070.03HI), 389 ng/mL hydrocortisone (Sigma-Aldrich, cat. H4001), 9.7 ng/mL human EGF recombinant protein (Invitrogen, cat. PHG0313), 23.4 microg/mL adenine (Sigma-Aldrich, cat. A2786), 97.3 U/mL penicillin-streptomycin (Invitrogen, cat. 15140122), 1.9 mM L-glutamine (Invitrogen, cat. 25030081), and 9.7 microM Y-27632 dihydrochloride (Tocris Bioscience, Bristol, United Kingdom, cat. 1254). The PDCs were cultured in complete DMEM/F12 media without 9.7 microM Y-27632 dihydrochloride for at least two passages prior to the screen. The established cell line HOP-62 was cultured in RPMI 1640 medium, HEPES (Invitrogen, cat. 22400105) with 10% defined fetal bovine serum (HyClone Laboratories Inc., cat. SH30070.03) and 2 mM L-glutamine (Invitrogen, cat. 25030081). The pooled donor HUVEC were cultured in endothelial cell growth medium 2 (PromoCell, Heidelberg, Germany, cat. C-22011) and the hMSC were cultured in mesenchymal stem cell growth medium 2 (PromoCell, cat. C-28009). For all experiments, HUVEC and hMSC were used at passages </=5, while the malignant cell lines were used at passages </=15. […]

[1] = curve of first compound, second compound 0.1 µM
[2] = curve of first compound, second compound 0.316 µM
[3] = curve of first compound, second compound 1 µM
[4] = curve of first compound, second compound 3.16 µM
[5] = second compound 0.1 µM, first compound 0.0316 µM
[6] = second compound 0.1 µM, first compound 0.1 µM
[7] = second compound 0.1 µM, first compound 0.316 µM
[8] = second compound 0.1 µM, first compound 1 µM
[9] = second compound 0.1 µM, first compound 3.16 µM
[10] = second compound 0.1 µM, first compound 10 µM
[11] = second compound 0.316 µM, first compound 0.0316 µM
[12] = second compound 0.316 µM, first compound 0.1 µM
[13] = second compound 0.316 µM, first compound 0.316 µM
[14] = second compound 0.316 µM, first compound 1 µM
[15] = second compound 0.316 µM, first compound 3.16 µM
[16] = second compound 0.316 µM, first compound 10 µM
[17] = second compound 1 µM, first compound 0.0316 µM
[18] = second compound 1 µM, first compound 0.1 µM
[19] = second compound 1 µM, first compound 0.316 µM
[20] = second compound 1 µM, first compound 1 µM
[21] = second compound 1 µM, first compound 3.16 µM
[22] = second compound 1 µM, first compound 10 µM
[23] = second compound 3.16 µM, first compound 0.0316 µM
[24] = second compound 3.16 µM, first compound 0.1 µM
[25] = second compound 3.16 µM, first compound 0.316 µM
[26] = second compound 3.16 µM, first compound 1 µM
[27] = second compound 3.16 µM, first compound 3.16 µM
[28] = second compound 3.16 µM, first compound 10 µM
[29] = curve of first compound, second compound 10 µM
[30] = second compound 10 µM, first compound 0.0316 µM
[31] = second compound 10 µM, first compound 0.1 µM
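Further: spheroids exposed to compounds for 7 days.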
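Wherever viability, T/C is given: 100% = DMSO vehicle control viability.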

Structure (SMILES): C=CC(=O)N1CCN(c2nc(=O)n(-c3c(C)ccnc3C(C)C)c3nc(-c4c(O)cccc4F)c(F)cc23)C(C)C1 (stereo not given)
- IC50 (compound alone, run of 08/19/2021): > 10 µM
- IC50 (compound alone, run of 08/26/2021): > 10 µM
- IC50 (compound alone, run of 09/02/2021): > 10 µM

Structure (SMILES): COc1cc2nccc(Oc3ccc(NC(=O)C4(C(=O)Nc5ccc(F)cc5)CC4)cc3)c2cc1OC + C=CC(=O)N1CCN(c2nc(OCC3CCCN3C)nc3c2CCN(c2cccc4cccc(C)c24)C3)CC1CC#N
- IC50 (curve of first compound, second compound 0.0316 µM): 1.64 µM
- IC50 [1]: 1.8 µM
- IC50 [2]: 1.66 µM
- IC50 [3]: 1.59 µM
- IC50 [4]: 0.688 µM
- viability, T/C (second compound 0.0316 µM, first compound 0.0316 µM): 96.4%
- viability, T/C (second compound 0.0316 µM, first compound 0.1 µM): 106%
- viability, T/C (second compound 0.0316 µM, first compound 0.316 µM): 84%
- viability, T/C (second compound 0.0316 µM, first compound 1 µM): 83.1%
- viability, T/C (second compound 0.0316 µM, first compound 3.16 µM): 4.36%
- viability, T/C (second compound 0.0316 µM, first compound 10 µM): 8.53%
- viability, T/C [5]: 117%
- viability, T/C [6]: 97.3%
- viability, T/C [7]: 74.1%
- viability, T/C [8]: 86.3%
- viability, T/C [9]: 15.3%
- viability, T/C [10]: 7.78%
- viability, T/C [11]: 122%
- viability, T/C [12]: 91.6%
- viability, T/C [13]: 107%
- viability, T/C [14]: 79.7%
- viability, T/C [15]: 12%
- viability, T/C [16]: 7.79%
- viability, T/C [17]: 103%
- viability, T/C [18]: 78.7%
- viability, T/C [19]: 78.1%
- viability, T/C [20]: 81.3%
- viability, T/C [21]: 3.62%
- viability, T/C [22]: 2%
- viability, T/C [23]: 86.1%
- viability, T/C [24]: 83.6%
- viability, T/C [25]: 108%
- viability, T/C [26]: 29.5%
- viability, T/C [27]: 0.34%
- viability, T/C [28]: 0.17%

Structure (SMILES): CCNC(=O)CC1N=C(c2ccc(Cl)cc2)c2cc(OC)ccc2-n2c(C)nnc21 (stereo not given) + CC1OCC2(CCN(c3cnc(Sc4ccnc(N)c4Cl)c(N)n3)CC2)C1N
- IC50 [1]: > 10 µM
- IC50 [2]: > 10 µM
- IC50 [3]: > 10 µM
- IC50 [4]: > 10 µM
- IC50 [29]: > 10 µM
- viability, T/C [5]: 104%
- viability, T/C [6]: 107%
- viability, T/C [7]: 122%
- viability, T/C [8]: 82.7%
- viability, T/C [9]: 89.9%
- viability, T/C [10]: 84.9%
- viability, T/C [11]: 101%
- viability, T/C [12]: 123%
- viability, T/C [13]: 119%
- viability, T/C [14]: 90.3%
- viability, T/C [15]: 91.2%
- viability, T/C [16]: 80.1%
- viability, T/C [17]: 97.5%
- viability, T/C [18]: 139%
- viability, T/C [19]: 138%
- viability, T/C [20]: 108%
- viability, T/C [21]: 107%
- viability, T/C [22]: 89.6%
- viability, T/C [23]: 97.6%
- viability, T/C [24]: 118%
- viability, T/C [25]: 137%
- viability, T/C [26]: 103%
- viability, T/C [27]: 84.2%
- viability, T/C [28]: 71.3%
- viability, T/C [30]: 85.2%
- viability, T/C [31]: 91.5%
- viability, T/C (second compound 10 µM, first compound 0.316 µM): 93.5%
- viability, T/C (second compound 10 µM, first compound 1 µM): 87.6%
- viability, T/C (second compound 10 µM, first compound 3.16 µM): 67.6%
- viability, T/C (second compound 10 µM, first compound 10 µM): 71.8%

Structure (SMILES): Cn1ncnc1[C@H]1c2n[nH]c(=O)c3cc(F)cc(c23)N[C@@H]1c1ccc(F)cc1 + CC1OCC2(CCN(c3cnc(Sc4ccnc(N)c4Cl)c(N)n3)CC2)C1N
- IC50 [1]: > 0.1 µM
- IC50 [2]: > 0.1 µM
- IC50 [3]: > 0.1 µM
- IC50 [4]: > 0.1 µM
- IC50 [29]: < 0.000316 µM
- viability, T/C (second compound 0.1 µM, first compound 0.000316 µM): 109%
- viability, T/C (second compound 0.1 µM, first compound 0.001 µM): 82%
- viability, T/C (second compound 0.1 µM, first compound 0.00316 µM): 85.6%
- viability, T/C (second compound 0.1 µM, first compound 0.01 µM): 71.5%
- viability, T/C [5]: 74.8%
- viability, T/C [6]: 64.7%
- viability, T/C (second compound 0.316 µM, first compound 0.000316 µM): 110%
- viability, T/C (second compound 0.316 µM, first compound 0.001 µM): 99.8%
- viability, T/C (second compound 0.316 µM, first compound 0.00316 µM): 103%
- viability, T/C (second compound 0.316 µM, first compound 0.01 µM): 106%
- viability, T/C [11]: 89.6%
- viability, T/C [12]: 69.7%
- viability, T/C (second compound 1 µM, first compound 0.000316 µM): 87%
- viability, T/C (second compound 1 µM, first compound 0.001 µM): 109%
- viability, T/C (second compound 1 µM, first compound 0.00316 µM): 80%
- viability, T/C (second compound 1 µM, first compound 0.01 µM): 104%
- viability, T/C [17]: 78.5%
- viability, T/C [18]: 79.6%
- viability, T/C (second compound 3.16 µM, first compound 0.000316 µM): 93.3%
- viability, T/C (second compound 3.16 µM, first compound 0.001 µM): 80.7%
- viability, T/C (second compound 3.16 µM, first compound 0.00316 µM): 86.8%
- viability, T/C (second compound 3.16 µM, first compound 0.01 µM): 80%
- viability, T/C [23]: 87.1%
- viability, T/C [24]: 85%
- viability, T/C (second compound 10 µM, first compound 0.000316 µM): 55.1%
- viability, T/C (second compound 10 µM, first compound 0.001 µM): 18.3%
- viability, T/C (second compound 10 µM, first compound 0.00316 µM): 31.5%
- viability, T/C (second compound 10 µM, first compound 0.01 µM): 43.9%
- viability, T/C [30]: 37.2%
- viability, T/C [31]: 18.1%

Structure (SMILES): Cn1ncnc1[C@H]1c2n[nH]c(=O)c3cc(F)cc(c23)N[C@@H]1c1ccc(F)cc1
- viability, T/C (compound 0.01 µM): 82.8% [middle of 5 runs]
- IC50 (curve of compound): > 0.1 µM

Reference: PubChem BioAssay AID1963865 (Molecular Pharmacology Branch, DTP, NCI, 2024)
